Assays:
[1] = tested on: classical DCs in draining lymph node; assay: Ex vivo direct-priming by DCs sorted from draining lymph node of treated mice with OT-I peptide; assay type: in vivo, mouse; settings: four DC subtypes from SAA treated mice, 1 μg/mL OT-I peptide
Description: For in vitro cross-presentation study, mature FLT3L-DCs were harvested on day 9 and purified by EasySep Mouse CD11 c Positive Selection Kit II, then treated with 10 μM SAA or DMSO in IMDM medium (contain 10% bovine and 100 ng/mL FLT3L) for 10 h. […] Then antigen-obtained DCs were purified and co-cultured with naïve T cells from OT-1 mice at a ratio of 1:10 for 96 h. The co-culture medium was 1640 RPMI contains 10% fetal bovine with or without 1 μg/mL OT-1 (OVA 257-264) peptide. For ex vivo DCs cross-presentation assay, four types of DCs (migration CD11b DC, migration CD103′ DC, resident CD11b DC and resident CD8^+ DC) were sorted in draining lymph node from SAA treated B16-OVA bearing mice at day 12. These DCs were co-cultured with OT-1 naïve T cells in the ratio of 1:10 for 96 hours with or without OT-1 peptide. Supernatant IFN-γ production was detected via CBA assay.
Dendritic cells can activate T cells through cross-priming and/or direct-priming. In direct-priming process, DCs could stimulate T cells via surface co-stimulatory molecules such as CD80/CD86 or cytokines related with T cell activation. […] IFN-γ production was assessed by IFN-γ cytometric bead array. […] Then, IFN-γ production was assessed by IFN-γ cytometric bead array.

[2] = tested on: FLT3L-DCs; assay: FLT3L-DC cross-priming of OT-I T cells in vitro (IFN-γ cytometric bead array); assay type: cell-based, mouse; settings: 10 μM SAA 12 hours
Description: Bone marrow was isolated from wild-type and Ythdf1^−/− mice and treated with red cell lysis buffer to remove red blood cell. IMDM medium containing 10% fetal bovine serum was used to suspend bone marrow cells. To culture FLT3L-DCs, cell concentration was adjusted to 1×10^6/mL. Cells were cultured with 100 ng/mL FLT3L for 9 days to get mature FLT3L-DCs. Mature FLT3L-DCs were purified via EasySep Mouse CD11c Positive Selection Kit II, then treated with 10 μM SAA or DMSO in IMDM medium (contain 10% bovine and 100 ng/mL FLT3L) for 10 hours.
For in vitro cross-presentation study, mature FLT3L-DCs were harvested on day 9 and purified by EasySep Mouse CD11 c Positive Selection Kit II, then treated with 10 μM SAA or DMSO in IMDM medium (contain 10% bovine and 100 ng/mL FLT3L) for 10 h. […] Then antigen-obtained DCs were purified and co-cultured with naïve T cells from OT-1 mice at a ratio of 1:10 for 96 h. The co-culture medium was 1640 RPMI contains 10% fetal bovine with or without 1 μg/mL OT-1 (OVA 257-264) peptide. […] Supernatant IFN-γ production was detected via CBA assay.
Bone marrow derived cells (wildtype or Ythdf1 gene deficient) were cultured with FLT3L for 9 days to get FLT3L-DC and these DCs were treated with 10 μM SAA for 12 hours, then, FLT3L-DCs were co-cultured with necrotic B16-OVA tumor cell for 6 hours. […] IFN-γ production was assessed by IFN-γ cytometric bead array.

[3] = biological target: T1, YTHDF1 (361-559) (Homo sapiens, UniProt Q9BYJ9); assay: Isothermal Titration Calorimetry (ITC); assay type: binding; settings: 25° C.
T1 construct: GST (N, cleaved yes); made in house; host or cells: E. coli BL21 (DE3)
T1 sequence (Q9BYJ9 with tags, fused parts or gaps): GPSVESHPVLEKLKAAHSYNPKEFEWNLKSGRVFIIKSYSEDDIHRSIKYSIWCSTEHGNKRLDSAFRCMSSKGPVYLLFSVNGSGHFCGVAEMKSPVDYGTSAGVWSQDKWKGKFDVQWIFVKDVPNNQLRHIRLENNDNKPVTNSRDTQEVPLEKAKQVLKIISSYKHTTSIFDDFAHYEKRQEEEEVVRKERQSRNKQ
Description: Purified YTHDF1 (361-559) was dialyzed at 4° C. overnight in dialysis buffer (20 mM Hepes (pH 7.4) and 200 mM NaCl). Then dialyzed protein was diluted to 50 μM with dialysis buffer. […] Isothermal titration calorimetry (ITC) was conducted on a Microcal ITC 200 isothermal titration calorimeter (GE Healthcare) at 25° C. 200 μL 50 μM YTHDF1 (361-559) was filled in the sample cell and constantly stirred at 750 rpm; 40 μL 1 mM SAA was filled in the syringe. […] Then in order to make the titration effect more obvious, the nineteen […] injections were changed after calculation into five 2.5 μL injections followed by fourteen 1.9 μL injections. […] The experimental data was analyzed via Microcal ORIGIN (v7.0) software (Microcal Software).
Then, the binding affinity between SAA and YTHDF1 was evaluated. The Isothermal Titration Calorimetry (ITC) assay was performed to accurately test the equilibrium dissociation constants (Kd) between YTHDF1 and SAA. The ITC assay was conducted on a Microcal iTC200 isothermal titration calorimeter (GE Healthcare) for three times independently. Briefly, freshly purified YTHDF1 (50 μM) was titrated with 1 mM SAA at 25° C. in a buffer comprising 20 mM Hepes (pH 7.4) and 200 mM NaCl.

[4] = biological target: T1, YTHDF1 (361-559); assay: NMR CPMG binding experiment; settings: 200 μM SAA; 5 μM, 10 μM and 20 μM YTHDF1
Description: NMR CPMG experiment was performed at 25° C. using Bruker Avance III spectrometer (600 MHz proton frequency) with a cryogenically cooled probe (Bruker biospin, Germany). YTHDF1 (361-559) was diluted to 20 μM, 10 μM and 5 μM in phosphate buffer (20 mM NaH2PO4, 20 mM Na2HPO4, 150 mM NaCl, pH 7.4, D2O). […] The solvent-suppressed 1D ^1H CPMG was obtained via the pulse sequence (RD-90°-(τ-180°-τ) n-ACQ). In the pre-saturation procedure, a 54.78 dB pulse in 4 s duration of the recycle delay (RD) was applied to eliminate water resonance. Then, the 900 pulse length was modulated to 11.82 μs approximately. And at last, a total of 4 dummy scans and 64 free induction decays (FIDs) were collected into […] acquisition points, covering a spectral width of 12 kHz (20 ppm) with the acquisition time (ACQ) of 2.73 s.
Then, qualitative and quantitative experiments were performed to explore the binding between SAA and YTHDF1. Firstly, nuclear magnetic resonance (NMR) Carr-Purcell-Meiboom-Gill (CPMG) experiments were conducted.

O=C(/C=C/c1ccc(O)c(O)c1/C=C/c1ccc(O)c(O)c1)O[C@H](Cc1ccc(O)c(O)c1)C(=O)O [SAA, Salvianolic Acid A]
direct-priming capacity of DC subtypes (IFN-γ production) [1]: 3 of the 4 DC subtypes showed improved direct-priming capacity | cross-presentation function (IFN-γ production) ([2]; Ythdf1-/- FLT3L-DCs): could also promote the cross-presentation function | cross-priming of T cells (IFN-γ production) ([2]; wildtype FLT3L-DCs): better ability in cross-priming T cells than control group | entropy change ΔS [3]: 13.6 cal/mol/deg | Kd ([3]; 50 μM YTHDF1 titrated with 1 mM SAA): 5.71 µM | CPMG signal of the compound on addition of YTHDF1 [4]: signal decreased
